# Measured values published in patent US8236956B2, “Cyclopamine analogues and methods of use thereof” (Infinity Pharmaceuticals, Inc., priority 2004, dated 2012).
# Tested on: Hedgehog pathway
# Assay: C3H10T1/2 differentiation assay (alkaline phosphatase), inhibition of the Hedgehog pathway in cell culture
# Format: cell-based
# Settings: Mus musculus, C3H 10T1/2, read-out: Differentiation Assay EC50 (Approximate EC50 for Inhibition)
# Text: Hedgehog pathway specific cancer cell killing effects may be ascertained using the following assay. C3H10T1/2 cells differentiate into osteoblasts when contacted with the sonic hedgehog peptide (Shh-N). Upon differentiation; these osteoblasts produce high levels of alkaline phosphatase (AP) which can be measured in an enzymatic assay (Nakamura et al., 1997 BBRC 237: 465). Compounds that block the differentiation of C3H10T1/2 into osteoblasts (a Shh dependent event) can therefore be identified by a reduction in AP production (van der Horst et al., 2003 Bone 33: 899). The assay details are described below. The results approximate (EC50 for inhibition) of the differentiation assay is shown below in Table 1.
# Mouse embryonic mesoderm fibroblasts C3H10T1/2 cells (obtained from ATCC) were cultured in Basal MEM Media (Gibco/Invitrogen) supplemented with 10% heat inactivated FBS (Hyclone), 50 units/ml penicillin and 50 ug/ml streptomycin (Gibco/Invitrogen) at 37 C with 5% CO2 in air atmosphere.
# C3H10T1/2 cells were plated in 96 wells with a density of 8×10^3 cells/well. Cells were grown to confluence (72 hrs). After sonic Hedgehog (250 ng/ml), (R&D Systems) and/or compound treatment, the cells were lysed in 110 µl of lysis buffer (50 mM Tris pH 7.4, 0.1% TritonX100), plates were sonicated and lysates spun through 0.2 um PVDF plates (Corning). 40 ul of lysates was assayed for AP activity in alkaline buffer solution (Sigma) containing 1 mg/ml p-Nitrophenyl Phosphate. After incubating for 30 min at 37 C, the plates were read on an Envision plate reader at 405 nm. Total protein was quantified with a BCA protein assay kit from Pierce according to manufacturer's instructions. AP activity was normalized against total protein.
row,Structure (SMILES),EC50
1,C[C@@H]1CN[C@H]2[C@@H](C)[C@@]3(CC[C@H]4[C@@H]5CC=C6C[C@@H](O)CC[C@]6(C)[C@H]5CC45CC53C)O[C@@H]2C1 (some centres unmarked) [Compound 1],> 500 nM
2,C[C@@H]1CN[C@H]2[C@@H](C)[C@@]3(CC[C@H]4[C@@H]5CCC6=CC(=O)CC[C@]6(C)[C@H]5CC45CC53C)O[C@@H]2C1 (some centres unmarked) [Compound 11],> 500 nM
3,CC1=C2C[C@H]3[C@@H](CC=C4C[C@@H](O)CC[C@@]43C)[C@@H]2CC[C@@]2(C1)O[C@@H]1C[C@H](C)CN[C@H]1[C@H]2C [Compound 19],200 to 500 nM
4,CC1=C2C[C@H]3[C@@H](CC=C4C[C@@H](O)CC[C@@]43C)[C@@H]2CC[C@@]2(C1)O[C@@H]1C[C@H](C)CN(C)[C@H]1[C@H]2C [Compound 20],> 500 nM
5,CC1=C2C[C@H]3[C@@H](CCC4=CC(=O)CC[C@@]43C)[C@@H]2CC[C@@]2(C1)O[C@@H]1C[C@H](C)CN(CCNC(=O)CCc3ccccc3)[C@H]1[C@H]2C [Compound 21],< 200 nM
6,CC1=C2C[C@H]3[C@@H](CC=C4C[C@@H](O)CC[C@@]43C)[C@@H]2CC[C@@]2(C1)O[C@@H]1C[C@H](C)CN(CCNC(=O)CNC(=O)CCc3ccccc3)[C@H]1[C@H]2C [Compound 30],< 200 nM
7,CC1=C2C[C@H]3[C@@H](CCC4=CC(=O)CC[C@@]43C)[C@@H]2CC[C@@]2(C1)O[C@@H]1C[C@H](C)CN(CCO)[C@H]1[C@H]2C [Compound 39],> 500 nM
8,CC1=C2C[C@H]3[C@@H](CCC4=CC(=O)CC[C@@]43C)[C@@H]2CC[C@@]2(C1)O[C@@H]1C[C@H](C)CN(CCN(C)C)[C@H]1[C@H]2C [Compound 45],200 to 500 nM

# Same assay, conditions: Mus musculus, C3H 10T1/2; C3H10T1/2 cells, sonic Hedgehog 250 ng/ml, AP activity normalized against total protein; approximate; read-out: Differentiation Assay EC50 (Approximate EC50 for Inhibition)
row,Structure (SMILES),EC50
1,C[C@H]1C[C@H]2O[C@]3(CC[C@H]4[C@@H]5CC=C6C[C@@H](O)CC[C@]6(C)[C@H]5CC45CC53C)[C@H](C)[C@@H]2N(CCNC(=O)CCCCCNC(=O)CCc2ccccc2)C1 (some centres unmarked) [Compound 4],< 200 nM
2,C[C@H]1C[C@H]2O[C@]3(CC[C@H]4[C@@H]5CCC6=CC(=O)CC[C@]6(C)[C@H]5CC45CC53C)[C@H](C)[C@@H]2N(CCNC(=O)CCCCCNC(=O)CCc2ccccc2)C1 (some centres unmarked) [Compound 17],< 200 nM
3,CC1=C2C[C@H]3[C@@H](CCC4=CC(=O)CC[C@@]43C)[C@@H]2CC[C@@]2(C1)O[C@@H]1C[C@H](C)CN[C@H]1[C@H]2C [Compound 18],< 200 nM
4,CC1=C2C[C@H]3[C@@H](CCC4=CC(=O)CC[C@@]43C)[C@@H]2CC[C@@]2(C1)O[C@@H]1C[C@H](C)CN(CCNS(=O)(=O)CCc3ccccc3)[C@H]1[C@H]2C [Compound 24],200 to 500 nM
5,CC1=C2C[C@H]3C(CC=C4C[C@@H](O)CC[C@@]43C)[C@@H]2CC[C@@]2(C1)O[C@@H]1C[C@H](C)CN(CCCl)[C@H]1[C@H]2C (some centres unmarked) [Compound 27],> 500 nM
6,CC1=C2C[C@H]3C(CCC4=CC(=O)CC[C@@]43C)[C@@H]2CC[C@@]2(C1)O[C@@H]1C[C@H](C)CN(CCCl)[C@H]1[C@H]2C (some centres unmarked) [Compound 28],> 500 nM
7,COCCOCCN1C[C@@H](C)C[C@H]2O[C@]3(CC[C@@H]4C(=C(C)C3)C[C@H]3C4CCC4=CC(=O)CC[C@@]43C)[C@H](C)[C@@H]21 (some centres unmarked) [Compound 29],< 200 nM
8,COCCOCCOCCOCCN1C[C@@H](C)C[C@H]2O[C@]3(CC[C@@H]4C(=C(C)C3)C[C@H]3[C@H]4CCC4=CC(=O)CC[C@@]43C)[C@H](C)[C@@H]21 [Compound 31],< 200 nM
9,COCCOCCOCCN1C[C@@H](C)C[C@H]2O[C@]3(CC[C@@H]4C(=C(C)C3)C[C@H]3[C@H]4CCC4=CC(=O)CC[C@@]43C)[C@H](C)[C@@H]21 [Compound 33],< 200 nM
10,CC1=C2C[C@H]3[C@@H](CCC4=CC(=O)CC[C@@]43C)[C@@H]2CC[C@@]2(C1)O[C@@H]1C[C@H](C)CN(Cc3ccccc3)[C@H]1[C@H]2C [Compound 35],< 200 nM
11,CC1=C2C[C@H]3[C@@H](CCC4=CC(=O)CC[C@@]43C)[C@@H]2CC[C@@]2(C1)O[C@@H]1C[C@H](C)CN(Cc3ccc(Oc4ccccc4)cc3)[C@H]1[C@H]2C [Compound 37],> 500 nM
12,COCCOCCN1C[C@@H](C)C[C@H]2O[C@]3(CC[C@@H]4C(=C(C)C3)C[C@H]3[C@H]4CCC4=CC(=O)CC[C@@]43C)[C@H](C)[C@@H]21 [Compound 41],< 200 nM
13,CC1=C2C[C@H]3[C@@H](CCC4=CC(=O)CC[C@@]43C)[C@@H]2CC[C@@]2(C1)O[C@@H]1C[C@H](C)CN(CCOCCOCc3ccccc3)[C@H]1[C@H]2C [Compound 43],200 to 500 nM
14,CC1=C2C[C@H]3[C@@H](CCC4=CC(=O)CC[C@@]43C)[C@@H]2CC[C@@]2(C1)O[C@@H]1C[C@H](C)CN(CC(=O)NCCCc3ccccc3)[C@H]1[C@H]2C [Compound 47],200 to 500 nM

# Tested on: psoriasis lesions
# Assay: not given
# Settings: topical application; Tas et al., 2004 Dermatology 209: 126-131; cited from earlier work
row,Structure (SMILES),effect on psoriasis lesions
1,CC1=C2C[C@H]3[C@@H](CC=C4C[C@@H](O)CC[C@@]43C)[C@@H]2CC[C@]12O[C@@H]1C[C@H](C)CN[C@H]1[C@H]2C [cyclopamine],full or partial regression of the lesion
